Patent US10273231B2, “Azoline compounds substituted by a condensed ring system” (BASF SE, priority 2014, dated 2019)

Legend:
Type in all cases: in vivo
[1] = test system: Boll Weevil (Anthonomus grandis); assay: B.5 Boll weevil test, insect diet with eggs in microtiter plates; settings: 120 h, egg and larval mortality after 5 days, read-out: mortality in comparison with untreated controls
Experimental: B.5 Boll Weevil (Anthonomus grandis)
For evaluating control of boll weevil (Anthonomus grandis) the test unit consisted of 96-well-microtiter plates containing an insect diet and 5-10 A. grandis eggs.
The compounds were formulated using a solution containing 75% v/v water and 25% v/v DMSO. Different concentrations of formulated compounds were sprayed onto the insect diet at 5 μl, using a custom built micro atomizer, at two replications.
After application, microtiter plates were incubated at about 25±1° C. and about 75±5% relative humidity for 5 days. Egg and larval mortality was then visually assessed.

[2] = test system: Red Spider Mite (Tetranychus kanzawai); assay: B.9 Red spider mite test on sprayed cowpea beans; settings: assessed 72 hours after treatment, read-out: mortality in comparison with untreated controls
Experimental: B.9 Red Spider Mite (Tetranychus kanzawai)
The active compound was dissolved at the desired concentration in a mixture of 1:1 (vol:vol) distilled water:acetone. Add surfactant (Kinetic HV) was added at a rate of 0.01% (vol/vol).The test solution was prepared at the day of use.
Potted cowpea beans of 4-5 days of age were cleaned with tap water and sprayed with 1-2 ml of the test solution using air driven hand atomizer. The treated plants were allowed to air dry and afterwards inoculated with 30 or more mites by clipping a cassava leaf section from rearing population. Treated plants were placed inside a holding room at about 25-27° C. and about 50-60% relative humidity. Percent mortality was assessed 72 hours after treatment.

[3] = test system: Orchid Thrips (Dichromothrips Corbetti); assay: B.7 Orchid thrips floral-immersion test; settings: adult thrips, recorded 72 hours after treatment, read-out: mortality in comparison with untreated controls
Experimental: B.7 Orchid Thrips (Dichromothrips Corbetti) Dichromothrips corbettiadults used for bioassay were obtained from a colony maintained continuously under laboratory conditions. For testing purposes, the test compound is diluted in a 1:1 mixture of acetone:water (vol:vol), plus Kinetic HV at a rate of 0.01% v/v.
Thrips potency of each compound was evaluated by using a floral-immersion technique. All petals of individual, intact orchid flowers were dipped into treatment solution and allowed to dry in Petri dishes. Treated petals were placed into individual re-sealable plastic along with about 20 adult thrips. All test arenas were held under continuous light and a temperature of about 28° C. for duration of the assay. After 3 days, the numbers of live thrips were counted on each petal. The percent mortality was recorded 72 hours after treatment.

[4] = test system: Mediterranean Fruitfly (Ceratitis capitata); assay: B.6 Mediterranean fruitfly test, insect diet with eggs in microtiter plates; settings: 120 h, egg and larval mortality after 5 days, read-out: mortality in comparison with untreated controls
Experimental: B.6 Mediterranean Fruitfly (Ceratitis capitata)
For evaluating control of Mediterranean fruitfly (Ceratitis capitata) the test unit consisted of microtiter plates containing an insect diet and 50-80 C. capitata eggs. The compounds were formulated using a solution containing 75% v/v water and 25% v/v DMSO. Different concentrations of formulated compounds were sprayed onto the insect diet at 5 μl, using a custom built micro atomizer, at two replications.
After application, microtiter plates were incubated at about 28±1° C. and about 80+5% relative humidity for 5 days. Egg and larval mortality was then visually assessed.

[5] = test system: Vetch Aphid (Megoura viciae); assay: B.3 Vetch aphid test on broad bean leaf disks; settings: foliar, 120 h, adult aphids, assessed after 5 days, read-out: mortality in comparison with untreated controls
Experimental: B.3 Vetch Aphid (Megoura viciae)
For evaluating control of vetch aphid (Megoura viciae) through contact or systemic means the test unit consisted of 24-well-microtiter plates containing broad bean leaf disks.
The compounds were formulated using a solution containing 75% v/v water and 25% v/v DMSO. Different concentrations of formulated compounds were sprayed onto the leaf disks at 2.5 μl, using a custom built micro atomizer, at two replications.
After application, the leaf disks were air-dried and 5-8 adult aphids placed on the leaf disks inside the microtiter plate wells. The aphids were then allowed to suck on the treated leaf disks and incubated at about 23±10C and about 50±5% relative humidity for 5 days. Aphid mortality and fecundity was then visually assessed.

[6] = test system: Green Peach Aphid (Myzus persicae); assay: B.2 Green peach aphid systemic test, artificial diet under membrane in microtiter plates; settings: 72 h, adult aphids, assessed after 3 days, read-out: mortality in comparison with untreated controls
Excerpt: B.2 Green Peach Aphid (Myzus persicae)
For evaluating control of green peach aphid (Myzus persicae) through systemic means the test unit consisted of 96-well-microtiter plates containing liquid artificial diet under an artificial membrane.
The compounds were formulated using a solution containing 75% v/v water and 25% v/v DMSO. Different concentrations of formulated compounds were pipetted into the aphid diet, using a custom built pipetter, at two replications.
After application, 5-8 adult aphids were placed on the artificial membrane inside the microtiter plate wells. The aphids were then allowed to suck on the treated aphid diet and incubated at about 23±1° C. and about 50±5% relative humidity for 3 days. Aphid mortality and fecundity was then visually assessed.

[7] = test system: Tobacco Budworm (Heliothis virescens); assay: B.4 Tobacco budworm test, insect diet with eggs in microtiter plates; settings: 120 h, egg and larval mortality after 5 days, read-out: mortality in comparison with untreated controls
Experimental: B.4 Tobacco Budworm (Heliothis virescens)
For evaluating control of tobacco budworm (Heliothis virescens) the test unit consisted of 96-well-microtiter plates containing an insect diet and 15-25 H. virescens eggs.
The compounds were formulated using a solution containing 75% v/v water and 25% v/v DMSO. Different concentrations of formulated compounds were sprayed onto the insect diet at 10 μl, using a custom built micro atomizer, at two replications.
After application, microtiter plates were incubated at about 28±10C and about 80±5% relative humidity for 5 days. Egg and larval mortality was then visually assessed.

[8] = test system: Green Soldier Stink Bug (Nezara viridula); assay: B.11 Green soldier stink bug test on soybean pods in Petri dishes; settings: 120 h, late 3rd instar, recorded after 5 days, read-out: mortality in comparison with untreated controls
Experimental: B.11 Green Soldier Stink Bug (Nezara viridula)
(§1) The active compound was dissolved at the desired concentration in a mixture of 1:1 (vol:vol) distilled water:acetone. Surfactant (Kinetic HV) was added at a rate of 0.01% (vol/vol).The test solution was prepared at the day of use.
Soybean pods were placed in glass Petri dishes lined with moist filter paper and inoculated with ten late 3rd instar N. viridula. Using a hand atomizer, approximately 2 ml solution is sprayed into each Petri dish. Assay arenas were kept at about 25° C. Percent mortality was recorded after 5 days.

[9] = test system: Diamond Back Moth (Plutella xylostella); assay: B.1 Diamond back moth leaf-dip test on cabbage leaves; settings: 3rd instar larvae, recorded 72 hours after treatment, read-out: mortality in comparison with untreated controls
Experimental: B.1 Diamond Back Moth (Plutella xylostella)
The active compound was dissolved at the desired concentration in a mixture of 1:1 (vol:vol) distilled water:aceteone. Surfactant (Kinetic HV) was added at a rate of 0.01% (vol/vol).The test solution was prepared at the day of use.
Leaves of cabbage were dipped in test solution and air-dried. Treated leaves were placed in petri dishes lined with moist filter paper and inoculated with ten 3rd instar larvae. Mortality was recorded 72 hours after treatment. Feeding damages were also recorded using a scale of 0-100%.

[10] = test system: Rice Green Leafhopper (Nephotettix virescens); assay: B.8 Rice green leafhopper test on sprayed rice seedlings; settings: adults, recorded after 72 hours, read-out: mortality in comparison with untreated controls
Experimental: B.8 Rice Green Leafhopper (Nephotettix virescens)
Rice seedlings were cleaned and washed 24 hours before spraying. The active compounds were formulated in 1:1 acetone:water (vol:vol), and 0.01% vol/vol surfactant (Kinetic HV) was added. Potted rice seedlings were sprayed with 5-6 ml test solution, air dried, covered with Mylar cages cages and inoculated with 10 adults. Treated rice plants were kept at about 28-29° C. and relative humidity of about 50-60%. Percent mortality was recorded after 72 hours.

[11] = test system: Brown Marmorated Stink Bug (Halyomorpha halys); assay: B.13 Brown marmorated stink bug test on peanuts and soybean seeds in plastic cups; settings: 120 h, adult stage, recorded after 5 days, read-out: mortality in comparison with untreated controls
Experimental: B.13 Brown Marmorated Stink Bug (Halyomorpha halys)
as §1
Row peanuts and soybean seeds were placed into microwavable plastic cups and inoculated with five adult stage H. halys. Using a hand atomizer, approximately 1 ml solution is sprayed into each cup, insects and food present. A water source was provided (cotton wick with water). Each treatment is replicated 4-fold. Assay arenas are kept at about 25° C. Percent mortality was recorded after 5 days.

[12] = test system: Southern Armyworm (Spodoptera eridania); assay: B.10 Southern armyworm test on sprayed lima bean plants; settings: 96 h, larvae, assessed 4 days after treatment, read-out: mortality in comparison with untreated controls
Experimental: B.10 Southern Armyworm (Spodoptera eridania)
The active compounds were formulated in cyclohexanone as a 10,000 ppm solution supplied in tubes. The tubes were inserted into an automated electrostatic sprayer equipped with an atomizing nozzle and they served as stock solutions for which lower dilutions were made in 50% acetone:50% water (v/v). A nonionic surfactant (Kinetic®) was included in the solution at a volume of 0.01% (v/v).
Lima bean plants (variety Sieva) were grown 2 plants to a pot and selected for treatment at the 1st true leaf stage. Test solutions were sprayed onto the foliage by an automated electrostatic plant sprayer equipped with an atomizing spray nozzle. The plants were dried in the sprayer fume hood and then removed from the sprayer. Each pot was placed into perforated plastic bags with a zip closure. About 10 to 11 armyworm larvae were placed into the bag and the bags zipped closed. Test plants were maintained in a growth room at about 250C and about 20-40% relative humidity for 4 days, avoiding direct exposure to fluorescent light (24 hour photoperiod) to prevent trapping of heat inside the bags. Mortality and reduced feeding were assessed 4 days after treatment, compared to untreated control plants.

[13] = test system: Neotropical Brown Stink Bug (Euschistus heros); assay: B.12 Neotropical brown stink bug test on soybean pods in plastic cups; settings: 120 h, adult stage, recorded after 5 days, read-out: mortality in comparison with untreated controls
Experimental: B.12 Neotropical Brown Stink Bug (Euschistus heros)
as §1
Soybean pods were placed in microwavable plastic cups and inoculated with ten adult stage E. heros. Using a hand atomizer, approximately 1 ml solution is sprayed into each cup, insects and food present. A water source was provided (cotton wick with water). Each treatment was replicated 2-fold. Assay arenas were kept at about 25° C. Percent mortality was recorded after 5 days.

CCCC(=O)NCc1ccc(C2=NOC(c3cc(Cl)c(F)c(Cl)c3)(C(F)(F)F)C2)c2c1OCC2 (centres unmarked) [Compound I-16, N-[[4-[5-(3,5-dichloro-4-fluoro-phenyl)-5-(trifluoromethyl)-4H-isoxazol-3-yl]-2,3-dihydrobenzofuran-7-yl]methyl]butanamide]
≥ 75%: mortality at 2500 ppm [1] | mortality at 300 ppm [2] | mortality at 300 ppm [3] | mortality at 2500 ppm [4] | mortality at 2500 ppm [5] | mortality at 2500 ppm [6] | mortality at 2500 ppm [7] | mortality at 300 ppm [8] | mortality at 300 ppm [9] | mortality at 300 ppm [10]

O=C(NC1CS(=O)(=O)C1)c1ccc(C2=NOC(c3cc(Cl)c(F)c(Cl)c3)(C(F)(F)F)C2)c2c1SCC2 (centres unmarked) [Compound I-7, 4-[5-(3,5-dichloro-4-fluoro-phenyl)-5-(trifluoromethyl)-4H-isoxazol-3-yl]-N-(1,1-dioxothietan-3-yl)-2,3-dihydrobenzothiophene-7-carboxamide]
≥ 75%: mortality at 2500 ppm [1] | mortality at 100 ppm [11] | mortality at 300 ppm [2] | mortality at 300 ppm [3] | mortality at 2500 ppm [4] | mortality at 2500 ppm [5] | mortality at 10 ppm [12] | mortality at 2500 ppm [6] | mortality at 2500 ppm [7] | mortality at 300 ppm [8] | mortality at 300 ppm [9] | mortality at 100 ppm [13] | mortality at 300 ppm [10]
